From patent publication US7772197B2, “1,3,5-triazines for treatment of viral diseases” (1,3,5-Triazines for Treatment of Viral Diseases, priority 2002, dated 2010)

Tests used:
[1] = tested on: HIV-1 LAI-M184V; test: Sensitivity of NRTI-resistant HIV strain M184V, MT-2 cells; format: cell-based; details: Human immunodeficiency virus 1, MT2
Experimental: 0.1 ml of a 3×10^5 cells/ml MT-2 cell suspension were seeded in 96-well plates at 3×10^4 cells/well. The compounds to be assayed were diluted in a separate 96-well at ten times (10×) the concentration needed for the screen. 22 μl of the 10× compounds was then added to the wells in triplicate except for six control wells, containing uninfected MT-2 cells alone (3 wells) and untreated HIV-infected MT-2 cells (3 wells). This was followed by the addition of HIV-1 at an MOI of 0.01, except for the three wells serving as the uninfected control. 0.1 ml of cRPMI was added to the uninfected well instead of virus. After the addition of virus, the 96-well plate was centrifuged at 1,200×g for two hours to enhance the adsorption of the virus by the MT-2 cells (see, e.g., O'Doherty, J. Virol. 74:10074-10080 (2000)). After the centrifugation step, the 96-well plate was then incubated in a 37° C. incubator containing 5% CO2 for three days. At the end of this time period the virus and cells were mixed by gentle pipetting followed by a 1 minute spin at 600×g to pellet the cells. The supernatant of each well was then serially diluted 1,000-fold into new 96-well plates to serve as inoculum for the next passage and assayed by ELISA for the amount of p24 produced. The next passage was performed as described above, except that the virus used to infect the cells was derived from the 1,000-fold dilution plate.
To determine if there is resistance of HIV NRTI resistant strains to mutagenic nucleoside analogues, NRTI resistant strains were grown in the presence of 5-aza-dC to determine whether the EC50 for 5-aza-dC is different from the WT strain (HIV-1 LAI). […] Growth of HIV NRTI resistant strains in the presence of the appropriate concentration of NRTI was used as a positive control.
Three HIV NRTI resistant strains (HIV-1 LAI-M184V, HIV-1 RTMDR1, with 74V, 41L, 106A and 215Y mutations, and HIV-1 RTMC, with 67N, 70R, 215F and 219Q mutations) were used to test the effectiveness of 5-aza-dC. […] Mutations include: M41L, E44D, A62V, K65R, D67N, T69DN, T69S_SS, K70R, L74V, V75I, F77L, Y115F, F116Y, V118I, Q151M, M184V, L210W, T215F and K219QE.
The effectiveness of DHAdC was tested against wild-type HIV strains and NRTI resistant HIV strains as described in Example 2. The following strains were tested: HIV-1 LAI, wild-type; HIV-I LAI-M184V-M184V mutation with resistance to lamivudine (3TC); HIV-1 RTMDR1-74V, 41L, 106A and 215Y mutations with resistance to zidovudine, didanosine, nevirapine and other non-nucleoside reverse transcriptase inhibitors; and HIV-1 RTMC-67N, 70R, 215F and 219Q with resistance to zidovudine.

[2] = molecular target: T1, polymerase-α (Homo sapiens, UniProt P09884); test: Substrate for cellular polymerase; format: biochemical; details: data not shown
T1 sequence (P09884 1-1462): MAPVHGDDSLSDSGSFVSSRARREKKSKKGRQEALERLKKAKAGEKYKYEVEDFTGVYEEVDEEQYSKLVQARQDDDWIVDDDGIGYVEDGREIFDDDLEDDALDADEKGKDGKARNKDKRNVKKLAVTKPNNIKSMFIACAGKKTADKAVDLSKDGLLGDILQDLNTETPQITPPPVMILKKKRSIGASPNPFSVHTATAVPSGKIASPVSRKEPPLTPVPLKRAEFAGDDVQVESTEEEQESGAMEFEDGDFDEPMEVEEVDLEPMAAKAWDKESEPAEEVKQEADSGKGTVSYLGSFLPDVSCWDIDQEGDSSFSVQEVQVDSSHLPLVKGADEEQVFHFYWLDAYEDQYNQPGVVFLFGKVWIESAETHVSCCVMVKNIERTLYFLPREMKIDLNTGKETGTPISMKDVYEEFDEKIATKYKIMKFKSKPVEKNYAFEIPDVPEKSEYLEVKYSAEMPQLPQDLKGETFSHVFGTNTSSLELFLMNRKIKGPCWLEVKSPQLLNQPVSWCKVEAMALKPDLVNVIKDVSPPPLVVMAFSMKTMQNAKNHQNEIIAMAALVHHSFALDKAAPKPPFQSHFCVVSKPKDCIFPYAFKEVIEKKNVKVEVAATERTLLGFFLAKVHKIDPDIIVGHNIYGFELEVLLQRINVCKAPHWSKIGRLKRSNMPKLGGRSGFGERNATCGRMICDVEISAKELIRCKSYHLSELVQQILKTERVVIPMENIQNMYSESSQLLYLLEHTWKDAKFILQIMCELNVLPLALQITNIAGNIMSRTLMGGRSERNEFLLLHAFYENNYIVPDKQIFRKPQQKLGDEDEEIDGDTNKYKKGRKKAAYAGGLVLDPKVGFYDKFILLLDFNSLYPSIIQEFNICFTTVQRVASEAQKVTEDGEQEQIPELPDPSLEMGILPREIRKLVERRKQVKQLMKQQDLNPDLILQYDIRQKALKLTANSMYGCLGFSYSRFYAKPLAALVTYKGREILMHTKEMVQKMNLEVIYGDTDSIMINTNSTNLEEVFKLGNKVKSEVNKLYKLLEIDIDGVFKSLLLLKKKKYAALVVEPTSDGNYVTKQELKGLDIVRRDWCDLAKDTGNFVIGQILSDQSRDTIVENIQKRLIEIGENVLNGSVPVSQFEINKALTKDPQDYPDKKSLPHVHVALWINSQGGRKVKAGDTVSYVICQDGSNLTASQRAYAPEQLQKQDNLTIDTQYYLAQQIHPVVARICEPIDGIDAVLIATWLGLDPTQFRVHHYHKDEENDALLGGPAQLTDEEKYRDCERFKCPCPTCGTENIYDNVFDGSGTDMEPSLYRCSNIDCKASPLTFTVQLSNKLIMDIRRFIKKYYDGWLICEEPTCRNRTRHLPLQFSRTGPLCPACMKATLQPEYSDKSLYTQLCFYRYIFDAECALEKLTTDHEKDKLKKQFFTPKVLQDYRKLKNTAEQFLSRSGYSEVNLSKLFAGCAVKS

[3] = Cytotoxicity on MT-2 cells (MTT); format: cell-based; details: human
Experimental: For each compound, cytotoxicity was evaluated on MT-2 cells. MT-2 cells were seeded at 3×10^4 cells/well in 96-well plates. […] After 5 days growth in a 37° C. incubator containing 5% CO2, MTT was added to a final concentration of 0.5 mg/ml and then incubated for four hours at 37° C. 10% SDS in 0.02 N HCl was added to lyse the cells overnight at 37° C. The plates were read on a Tecan Genius microplate reader at wavelengths of 570 nm/650 nm. The dose response curve was graphed by comparing the treated cells with the untreated control and the IC50 was determined for each compound.

In the case of `NC1=NC(=O)N([C@H]2C[C@H](O)[C@@H](CO)O2)CN1` [DHAdC, 1-(2-Deoxy-β-D-ribofuranosyl)-4-amino-1,2,5,6-tetrahydro-1,3,5-triazin-2-one], the EC50 [1] is reported as 6 µM, the “substrate for polymerase-α” value [2] is reported as “poor substrate” and the IC50 at 5 days [3] is reported as > 1000 µM.
